From patent US20240092800A1, “USP13 INHIBITORS AND METHODS OF USE THEREOF” (GEORGETOWN UNIVERSITY, priority 2021, published 2024)

Columns and labels:
[1] = Pharmacokinetics in brain and serum of C57BL/6 mice (UHPLC-MS/MS); assay type: in vivo, mouse; conditions: 10 mg/kg I.P. single dose
Protocol: Pharmacokinetics Studies. […] Brain and serum samples were collected at 1, 2, 3, 4, 8 and 12 h (n=3 per time point). Animals injected with vehicle (DMSO) were used for background subtraction. Stock solution of the drug (1 mg/mL) and internal standards were prepared in methanol. Intermediate solutions used for the calibrators and control samples were serial-diluted in methanol/water (1:1). Preparation of the calibration curve standards and quality samples (QC) were performed by mixing the intermediate dilutions in blank samples (brain homogenates, serum). […] Serum and brain samples were stored at −80° C. and then thawed to room temperature prior to preparation. The brains were homogenized in MilliQ water (1 mg brain: 10 μL water). Proteins were precipitated in both brain and serum samples by mixing 25 μL aqueous sample with 75 μL internal standard working solution. The mixture was centrifuged at 12,300 g for 5 min. Thereafter, 75 μL of each supernatant and 25 μL of MilliQ water were pipetted into a 96-well PCR plate (Fisher Scientific, Dawsonville, GA,USA).
Briefly, the UHPLC-MS/MS system included an Elute HTG binary gradient UHPLC pump, an Elute column oven and an EVOQ Elite triple quadrupole mass spectrometer (all from Bruker Daltonik GmbH, Bremen, Germany) equipped with an electrospray ionization (ESI) source operating in a positive mode. The samples were injected by use of a PAL auto sampler (CTC Analytics, Zwingen, Switzerland) equipped with a 10-μL sample loop; the samples were kept in a PAL stack cooler for 6 microtiter plates and operating at +6° C. The system was controlled by a Compass 2.0/HyStar 4.0 software (Bruker); the compound screening and quantitation was performed by a TASQ 2.2 data acquisition and processing software (Bruker). The mass spectrometer was supplied by nitrogen and air generated by a Genius 3045 nitrogen/air generator (Peak Scientific Instruments, Inchinnan, Scotland, UK). The ESI parameters were as follows: probe gas flow 50, nebulizer gas flow 60, probe temperature +400° C., cone gas flow 20, cone temperature +350° C., CID gas Ar 1.5 mTorr. The mass spectra were scanned in the MRM mode to find the optimal collision energies for the test compounds and their respective precursor ions.
For chromatographic separation, an YMC-Ultra HT Hydrosphere C18 column (2.0×100 mm, 2 μm particle size) and an YMC-Hydrosphere 2.1×5 mm guard column (YMC Co. Ltd., Kyoto, Japan) were used. The mobile phase A was 10 mM ammonium formate, pH 4.3, in water; the mobile phase B was 10 mM ammonium formate, pH 4.3, in 10% water, 50% acetonitrile and 40% isopropyl alcohol. The mobile phase gradient was as follows (min—A/B%): 0 min—50/50, 0.5 min—50/50, 2.0 min—20/80, 3 min—20/80, 3.1 min—50/50, 4.5 min—50/50. The flow rate was 450 μL/min, and the column temperature was set at 50° C. The sample injection volume was 10 μL.

Nissl+ cells = experiment: Nissl staining neuron counts in TgA53T mice; assay type: in vivo, mouse; conditions: 40 mg/Kg I.P. daily for 7 days, vs DMSO
Protocol: (§1) Immunohistology. Animals were deeply anesthetized with a mixture of xylazine and ketamine (1:8), washed with normal saline for 1 min and then perfused with 4% paraformaldehyde (PFA) for 15-20 min. Brains were quickly dissected out and immediately stored in 4% PFA for 24 h at 4° C. and then transferred to 30% sucrose at 4° C. for 48 h. Brains were cut using a cryostat microtome into 20 μm thick coronal sections and stored at −20° C.
Nissl and Silver Staining. Nissl staining was performed using FD Cresyl Violet Solution™ Regular Strength (FD NeuroTechnologies, Cat PS102-01) as per manufacturer's instructions. Silver staining was performed using FD NeuroSilver™ (FD NeuroTechnologies, Cat PK301,) as per manufacturer's instructions.

[2] = tested on: tyrosine hydroxylase (TH); experiment: Tyrosine hydroxylase staining in striatum of TgA53T mice; assay type: in vivo, mouse; conditions: 40 mg/Kg I.P. daily for 7 days, vs DMSO
Protocol: as §1
Immunohistochemistry was performed on the 20 μm thick brain sections for evaluation of ubiquitination of alpha-synuclein. The antibodies used were human alpha-synuclein monoclonal antibody (Thermo Fisher, AHB0261, Rockford, IL, USA) and ubiquitin polyclonal antibody (Thermo Fisher, PA3-16717, Rockford, IL, USA). The optic densitometry of co-localization of ubiquitin with alpha-synuclein was measured using Image J. Tyrosine hydroxylase (TH) is the limiting enzyme in DA synthesis, so probing for TH+ neurons will help to evaluate the status of DA producing neurons in the SN and their terminals in the striatum. We performed fluorescent staining of TH+ in striatum and conducted optic densitometry measurement of striatal DA terminals. Nuclear staining with 4,6-diamidino-2-phenylindole was performed according to manufacturer's protocols (Life Technologies, Rockford, IL, USA).

[3] = tested on: human SHSY5Y neuroblastoma cells; experiment: Cell viability by MTT and LDH assays; conditions: 5 hours, up to 1 mM concentration
Protocol: Human SHSY-5Y neuroblastoma cells were cultured in Dulbecco's Modified Eagle's Medium (DMEM) (ThermoFisher Scientific; Waltham, MA) with 10% Fetal Bovine Serum (FBS) (ThermoFisher) and 1% Penicillin-Streptomycin (PenStrep, ThermoFisher) and incubated at 37° C. under atmospheric oxygen concentrations (21%) with 5% CO2. SHSY-5Y cells were cultured in DMEM with Ham's F12 (1:1) (ThermoFisher) with 20% FBS, 1% PenStrep. Cells were plated at a density tailored to reach 70-80% confluence at the beginning of every experiment. SH-SY5Y cells were transiently transfected for 24 hours with human wild-type α-synuclein using Fugene HD transfection reagent (Promega; Madison, WI) before fresh culture media and drug were added.
Cell viability was determined via lactate dehydrogenase assay on culture media, (ThermoFisher) and MTT assay on plated cells (ThermoFisher).

[4] = tested on: alpha-synuclein ubiquitination; experiment: Alpha-synuclein ubiquitination in TgA53T mice (IP/WB, immunostaining co-localization); assay type: in vivo, mouse; conditions: midbrain extracts, 40 mg/kg compared to DMSO and 10 mg/kg
Protocol: Immunoprecipitation (IP). Mouse brain tissues were homogenized in 1×STEN buffer, and the soluble fraction was isolated as indicated above. The lysates were pre-cleaned with immobilized recombinant protein A/G agarose (Santa Crutz, sc-2003, Dallas, TX, USA) and centrifuged at 2500×g for 1 min at 4° C. The supernatant was recovered and quantified by protein assay, and a total of 300 μg protein was incubated overnight at 4° C. with primary anti-alpha-synuclein (1:200, Thermofisher, AHB0261) mouse antibodies or anti-ubiquitin (1:100) (Thermo Fisher, PA3-16717, Rockford, IL, USA) antibodies in the presence of sepharose G and an IgG control with primary antibodies. The immunoprecipitates were collected by centrifugation at 2500×g for 3 min at 4° C., washed 5× in PBS, with spins of 3 min, 2500×g using detergent-free buffer for the last washing step, and the proteins were eluted according to Pierce instructions (Pierce #20365, Rockford, IL, USA). […]
Immunohistochemistry was performed on the 20 μm thick brain sections for evaluation of ubiquitination of alpha-synuclein. […] The optic densitometry of co-localization of ubiquitin with alpha-synuclein was measured using Image J. Tyrosine hydroxylase (TH) is the limiting enzyme in DA synthesis, so probing for TH+ neurons will help to evaluate the status of DA producing neurons in the SN and their terminals in the striatum. […]

Fc1ccc2nccc(OCc3ccccc3)c2c1 [4-(Benzyloxy)-6-fluoroquinoline]
Brain/serum ratio ([1]; 10 mg/kg): 28.0% | AUC ([1]; brain): 0.1643 µM·h | T1/2 (elimination) ([1]; brain): 2.32 h | AUC ([1]; serum): 0.5994 µM·h | T1/2 (elimination) ([1]; serum): 1.84 h | Tmax ([1]; serum): 1 h | neuron counts (Nissl+ cells) (Nissl+ cells; cortex): significantly increased neuron counts | neuron counts (Nissl+ cells) (Nissl+ cells; striatum): significantly increased neuron counts | neuron counts (Nissl+ cells) (Nissl+ cells; substantia nigra (SN)): significantly increased neuron counts | staining of tyrosine hydroxylase (TH) [2]: did not show any noticeable effects | cell death in two viability assays (MTT and LDH) [3]: do not cause cell death | alpha-synuclein ubiquitination by immunoprecipitation and WB [4]: increased ubiquitination
